One assay deals with T1, OR6A2 (Homo sapiens, UniProt O95222).
T1 construct: OR6A2 protein surface expression in hMDMs was confirmed by flow cytometry; endogenous in cells; host or cells: human monocyte-derived macrophages from healthy donors (rhM-CSF, 7 d)
T1 sequence (O95222 1-327): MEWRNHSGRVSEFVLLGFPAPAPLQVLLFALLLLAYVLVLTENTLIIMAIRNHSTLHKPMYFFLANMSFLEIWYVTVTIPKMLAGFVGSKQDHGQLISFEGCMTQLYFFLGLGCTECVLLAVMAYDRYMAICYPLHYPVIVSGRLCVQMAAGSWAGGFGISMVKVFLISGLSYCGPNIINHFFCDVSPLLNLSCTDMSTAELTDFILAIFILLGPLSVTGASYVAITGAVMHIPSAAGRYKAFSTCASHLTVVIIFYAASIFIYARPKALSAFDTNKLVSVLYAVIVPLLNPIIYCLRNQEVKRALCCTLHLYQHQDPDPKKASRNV
Put plainly: Pro-inflammatory gene expression and cytokine secretion in hMDMs. The assay is classed as cell-based. Particulars: 12 h. As for the experimental part: Peripheral blood mononuclear cells (PBMCs) were isolated from EDTA-venous blood of informed healthy donors (25-50 years old) from La Jolla Institute for Immunology's in-house Normal Blood Donor Program (NBDP), using a Ficoll-Paque (GE Healthcare) standard separation protocol. Human monocytes were enriched from PBMCs by the EasySep™ Human Monocyte Isolation Kit (StemCell) according to the manufacturer's instructions. Enriched monocytes were incubated with culture medium supplemented with 50 ng/ml rhM-CSF at 37° C. and 5% CO2 for 7 days. Differentiated macrophages at day 7 were used for further studies.
BMDMs and hMDMs were incubated in culture media for 12 h at 37° C. and 5% CO2 with Oct, (10 μM), LPS (500 ng/mL) alone or combined with Oct (LPS+Oct) and DMSO (0.1%) as a control and lysed with Qiazol (500 μL; Qiagen) Similarly, whole aortas incubated as previously described were transferred into Qiazol (500 μl; Qiagen) and digested with gentleMACS™ Dissociator (Miltenyi).
Total RNA was quantified using a nanodrop spectrophotometer (Peqlab) and 500 ng were reverse transcribed into cDNA using Omniscript reverse transcriptase (Qiagen). Real time PCR reactions were performed according to the RT^2 SYBR green gene expression assay protocol (Qiagen). RT2 SYBR Green qPCR master mix and premade RT^2 qPCR Primer Assays for mouse Olfr2, Rtp1, Rtp2, Ccl2, Ccl4, Tnf, Nos2 and Gapdh were used. […] The results were calculated applying the 2^−ΔΔCT method^32 using Gapdh/GAPDH as housekeeping gene.
Supernatants of stimulated cells and aortic tissue were analyzed by BD CBA Flex Sets (BD Biosciences) for mouse TNFα, CCL2, CCL4, IL-1β, or human TNF, IL6, and IL-1β according to the manufacturer's protocol. Samples were analyzed with LSR-II (BD Biosciences). Data was acquired with FACSDiva software (BD Biosciences) and analyzed with FCAP array software 3.0 (BD Biosciences).

Assay [1] concerns the target T2, Olfr2 (Mus musculus, UniProt Q9QWU6).
T2 sequence (Q9QWU6 1-327): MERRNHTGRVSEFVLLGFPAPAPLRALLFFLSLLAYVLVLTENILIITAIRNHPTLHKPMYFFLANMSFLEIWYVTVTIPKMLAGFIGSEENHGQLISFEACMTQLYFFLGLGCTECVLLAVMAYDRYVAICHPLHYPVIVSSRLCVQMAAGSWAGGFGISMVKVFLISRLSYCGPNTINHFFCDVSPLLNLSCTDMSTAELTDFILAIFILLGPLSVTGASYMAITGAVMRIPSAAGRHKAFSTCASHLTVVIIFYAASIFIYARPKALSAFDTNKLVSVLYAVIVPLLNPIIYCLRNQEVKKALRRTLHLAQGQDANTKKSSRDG
Conditions: Olfr2 binding of medium-chain aliphatic aldehydes; cited from earlier work.

The target of assay [2] is T2, Olfr2. Put plainly: Intracellular TNF staining in vascular macrophages and blood monocytes (flow cytometry). Further details: Olfr2 expression was confirmed at the protein level on F4/80^+ vascular macrophages; from tissue; host or cells: explanted whole aortas, digested aortic cell suspensions (F4/80+ vascular macrophages) and blood monocytes of Apoe-/- C57BL/6J mice; living Apoe-/- mice for the in vivo study. Particulars: octanal. The assay is classed as cell-based. As to the method: To assess the functional properties of Olfr2 in monocytes, cells were enriched form Apoe−/− mice blood by the negative selection. Purified monocytes were then incubated as described above. TNF expression (TNF-PE) was evaluate by intracellular staining protocol by flow cytometry. Classical and non-classical monocytes were divided as previously described (Live, CD115+, LyC6+, and LyC6− respectively). […] Data are presented as means±SEM. *p<0.05, **p<0.01, ***p<0.005, ****p<0.001. p calculated by One-Way ANOVA test, Tukey's multiple comparisons test.
Whole aortas and mouse blood leukocytes were incubated in culture medium with Oct, (10 μM), LPS, (500 ng/mL) alone or combined (LPS+Oct) for 12h at 37° C. and 5% CO2. The protein transport inhibitor cocktail 1× (eBioscience) was added for whole 12h in the whole aorta samples and for the last 6 hours in the mouse blood leukocyte samples. […]
Cells were then washed, fixed, permeabilized applying the Intracellular Fixation and Permeabilization Buffer Set (eBioscience), and stained with mouse anti-TNF-PE (eBioscience). Samples were analyzed with LSR-II (BD Biosciences). Data was acquired with FACSDiva software (BD Biosciences) and analyzed with FlowJo software (Treestar Inc).

SMILES strings stand for the structures.

Take `CCCCCCCC=O` [octanal]: on OR6A2 (LPS 500 ng/mL + octanal 10 μM), the “LPS-induced expression of TNF, IL6 and NOS2 in hMDMs” value is reported as “enhanced the LPS-induced expression”. At OR6A2 (LPS + octanal, cytokine bead array), the “secretion of inflammatory molecules (IL6, TNF) in hMDM supernatant” value is “enhanced”. In addition, on OR6A2 (octanal 10 μM), the “mRNA expression of TNF, IL6 and NOS2 in hMDMs” value was “induced mRNA expression”. For the same molecule, the EC50 at Olfr2 [1] was approximately 10 µM. Also, the “TNF expression in Ly6C+ and Ly6C− blood monocytes” value at Olfr2 [2] is on record as “boosted”.

The record behind these values is patent US20210145768A1, “MODULATING IMMUNE RESPONSE VIA TARGETING OF OLFACTORY RECEPTOR ACTIVITY” (La Jolla Institute for Allergy and Immunology, priority 2018, published 2021).
